Assay results taken from patent publication US20230062100A1, “SUBSTITUTED AMINOQUINOLONES AS DGKALPHA INHIBITORS FOR IMMUNE ACTIVATION” (Bayer Aktiengesellschaft, priority 2019, published 2023).

Target: DGKα (Homo sapiens, UniProt P23743)
Assay: Human DGKα kinase activity inhibition assay (ADP-Glo)
Type: biochemical
Details: in vitro human DGKα kinase activity inhibition assay
How it was run: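 C-terminally FLAG-tagged full-length human DGKα from baculovirus/insect cells (typically ~0.1 nM) phosphorylated 1,2-dioleoyl-sn-glycerol in octyl-β-D-glucopyranoside micelles in MOPS pH 7.4. ADP formed was quantified by ADP-Glo luminescence after 1 h ATP depletion at 22 °C.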

DGKα, sequence (P23743 with tags, fused parts or gaps): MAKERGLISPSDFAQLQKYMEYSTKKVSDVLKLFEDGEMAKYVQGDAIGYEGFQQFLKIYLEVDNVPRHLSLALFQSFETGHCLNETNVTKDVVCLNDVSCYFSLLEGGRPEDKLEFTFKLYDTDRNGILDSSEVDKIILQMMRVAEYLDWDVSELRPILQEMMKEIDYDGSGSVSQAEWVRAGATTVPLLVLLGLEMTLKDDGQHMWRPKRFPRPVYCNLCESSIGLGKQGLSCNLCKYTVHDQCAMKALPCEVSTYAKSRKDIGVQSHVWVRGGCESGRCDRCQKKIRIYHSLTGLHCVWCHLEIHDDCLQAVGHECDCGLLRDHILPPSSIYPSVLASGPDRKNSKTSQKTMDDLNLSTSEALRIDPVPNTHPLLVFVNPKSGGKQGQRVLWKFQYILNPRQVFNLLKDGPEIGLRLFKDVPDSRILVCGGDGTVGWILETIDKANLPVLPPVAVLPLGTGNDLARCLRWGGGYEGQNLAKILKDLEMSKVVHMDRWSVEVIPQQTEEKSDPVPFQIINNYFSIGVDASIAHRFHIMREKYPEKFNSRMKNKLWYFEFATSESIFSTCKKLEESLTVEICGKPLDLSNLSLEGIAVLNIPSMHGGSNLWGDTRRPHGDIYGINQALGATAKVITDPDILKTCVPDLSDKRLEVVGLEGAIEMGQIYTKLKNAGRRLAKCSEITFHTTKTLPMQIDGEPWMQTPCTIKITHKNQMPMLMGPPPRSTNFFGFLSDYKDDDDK

Question: With `Cc1cccc(COC2CCN(c3c(C(N)=O)c(=O)n(C)c4ccccc34)CC2)c1` [Example 123, 1-methyl-4-{4-[(3-methylphenyl)methoxy]piperidin-1-yl}-2-oxo-1,2-dihydroquinoline-3-carboxamide] as the compound, how does the IC50 read?
Answer: 14 nM

Question: `Cc1ccccc1COC1CCN(c2c(C(N)=O)c(=O)n(C)c3ccccc23)CC1` [Example 124, 1-methyl-4-{4-[(2-methylphenyl)methoxy]piperidin-1-yl}-2-oxo-1,2-dihydroquinoline-3-carboxamide] was tested. Which IC50 did it give?
Answer: 30 nM

Question: For `COc1cccc(COC2CCN(c3c(C(N)=O)c(=O)n(C)c4ccccc34)CC2)c1` [Example 125, 4-{4-[(3-methoxyphenyl)methoxy]piperidin-1-yl}-1-methyl-2-oxo-1,2-dihydroquinoline-3-carboxamide], which IC50 is on record?
Answer: 43 nM

Question: With `Cn1c(=O)c(C(N)=O)c(N2CCC(OCc3ccccc3F)CC2)c2ccccc21` [Example 126, 4-{4-[(2-fluorophenyl)methoxy]piperidin-1-yl}-1-methyl-2-oxo-1,2-dihydroquinoline-3-carboxamide] as the compound, how does the IC50 read?
Answer: 14 nM

Question: For `Cn1c(=O)c(C(N)=O)c(N2CCC(OCc3ccc(F)cc3)CC2)c2ccccc21` [Example 127, 4-{4-[(4-fluorophenyl)methoxy]piperidin-1-yl}-1-methyl-2-oxo-1,2-dihydroquinoline-3-carboxamide], which IC50 is on record?
Answer: 14 nM

Question: `Cn1c(=O)c(C(N)=O)c(N2CCC(OCc3cccc(F)c3)CC2)c2ccccc21` [Example 128, 4-{4-[(3-fluorophenyl)methoxy]piperidin-1-yl}-1-methyl-2-oxo-1,2-dihydroquinoline-3-carboxamide] was tested. Which IC50 did it give?
Answer: 29 nM

Question: How did the IC50 turn out when `Cn1c(=O)c(C#N)c(N2CCC(Oc3ccc(OC(F)(F)F)cc3)CC2)c2cccc(F)c21` [Example 129, 8-fluoro-1-methyl-2-oxo-4-{4-[4-(trifluoromethoxy)phenoxy]piperidin-1-yl}-1,2-dihydroquinoline-3-carbonitrile] was run?
Answer: 29 nM

Question: How did the IC50 turn out when `Cn1c(=O)c(C#N)c(N2CCC(Oc3ccc(OC(F)(F)F)cc3)CC2)c2cccc(Br)c21` [Example 130, 8-bromo-1-methyl-2-oxo-4-{4-[4-(trifluoromethoxy)phenoxy]piperidin-1-yl}-1,2-dihydroquinoline-3-carbonitrile] was run?
Answer: 202 nM

Question: For `Cn1c(=O)c(C#N)c(N2CCC(Oc3ccc(OC(F)(F)F)cc3)CC2)c2cccc(Cl)c21` [Example 131, 8-chloro-1-methyl-2-oxo-4-{4-[4-(trifluoromethoxy)phenoxy]piperidin-1-yl}-1,2-dihydroquinoline-3-carbonitrile], which IC50 is on record?
Answer: 18 nM

Question: Which IC50 does the source give for `Cn1c(=O)c(C#N)c(N2CCC(Oc3ccc(OC(F)(F)F)cc3)CC2)c2cccc(C#N)c21` [Example 132, 1-methyl-2-oxo-4-{4-[4-(trifluoromethoxy)phenoxy]piperidin-1-yl}-1,2-dihydroquinoline-3,8-dicarbonitrile] here?
Answer: 536 nM

Question: `Cn1c(=O)c(C#N)c(N2CCC(Oc3ccc(OC(F)(F)F)cc3)CC2)c2cccc(N3CCCC3=O)c21` [Example 133, 1-methyl-2-oxo-8-(2-oxopyrrolidin-1-yl)-4-{4-[4-(trifluoromethoxy)phenoxy]piperidin-1-yl}-1,2-dihydroquinoline-3-carbonitrile] was tested. Which IC50 did it give?
Answer: 55 nM

Question: For `Cn1c(=O)c(C#N)c(N2CCC(Oc3ccc(OC(F)(F)F)cc3)CC2)c2cccc(N=S(C)(C)=O)c21` [Example 134, 8-{[dimethyl(oxo)-λ^6-sulfanylidene]amino}-1-methyl-2-oxo-4-{4-[4-(trifluoromethoxy)phenoxy]piperidin-1-yl}-1,2-dihydroquinoline-3-carbonitrile], which IC50 is on record?
Answer: 37 nM

Question: `Cn1c(=O)c(C#N)c(N2CCC(Oc3ccc(OC(F)(F)F)cc3)CC2)c2cccc(P(C)(C)=O)c21` [Example 135, 8-(dimethylphosphoryl)-1-methyl-2-oxo-4-{4-[4-(trifluoromethoxy)phenoxy]piperidin-1-yl}-1,2-dihydroquinoline-3-carbonitrile] was tested. Which IC50 did it give?
Answer: 1370 nM

Question: How did the IC50 turn out when `Cn1c(=O)c(C#N)c(N2CCC(Oc3ccc(OC(F)(F)F)cc3)CC2)c2cccc(S(C)(=O)=O)c21` [Example 136, 8-(methanesulfonyl)-1-methyl-2-oxo-4-{4-[4-(trifluoromethoxy)phenoxy]piperidin-1-yl}-1,2-dihydroquinoline-3-carbonitrile] was run?
Answer: 2.5 nM

Question: Which IC50 does the source give for `Cn1c(=O)c(C#N)c(N2CCC(Oc3ccc(F)cc3)CC2)c2cc(Br)ccc21` [Example 137, 6-bromo-4-[4-(4-fluorophenoxy)piperidin-1-yl]-1-methyl-2-oxo-1,2-dihydroquinoline-3-carbonitrile] here?
Answer: 1.9 nM

Question: With `COc1cccc(OC2CCN(c3c(C#N)c(=O)n(C)c4ccc(Br)cc34)CC2)c1` [Example 138, 6-bromo-4-[4-(3-methoxyphenoxy)piperidin-1-yl]-1-methyl-2-oxo-1,2-dihydroquinoline-3-carbonitrile] as the compound, how does the IC50 read?
Answer: 1.5 nM

Question: With `Cn1c(=O)c(C#N)c(N2CCC(Oc3ccc(OC(F)(F)F)cc3)CC2)c2cc(Br)ccc21` [Example 139, 6-bromo-1-methyl-2-oxo-4-{4-[4-(trifluoromethoxy)phenoxy]piperidin-1-yl}-1,2-dihydroquinoline-3-carbonitrile] as the compound, how does the IC50 read?
Answer: 2.5 nM

Question: Which IC50 does the source give for `Cn1c(=O)c(C#N)c(N2CCC(Sc3ccccc3)CC2)c2cc(Br)ccc21` [Example 140, 6-bromo-1-methyl-2-oxo-4-[4-(phenylsulfanyl)piperidin-1-yl]-1,2-dihydroquinoline-3-carbonitrile] here?
Answer: 1.4 nM

Question: For `Cc1ccc2c(c1)c(N1CCC(Oc3ccc(F)cc3)CC1)c(C#N)c(=O)n2C` [Example 141, 4-[4-(4-fluorophenoxy)piperidin-1-yl]-1,6-dimethyl-2-oxo-1,2-dihydroquinoline-3-carbonitrile], which IC50 is on record?
Answer: 7.7 nM

Question: `Cc1ccc2c(c1)c(N1CCC(Sc3ccccc3)CC1)c(C#N)c(=O)n2C` [Example 142, 1,6-dimethyl-2-oxo-4-[4-(phenylsulfanyl)piperidin-1-yl]-1,2-dihydroquinoline-3-carbonitrile] was tested. Which IC50 did it give?
Answer: 2 nM

Question: With `Cc1ccc2c(c1)c(N1CCC(Oc3ccc(OC(F)(F)F)cc3)CC1)c(C#N)c(=O)n2C` [Example 143, 1,6-dimethyl-2-oxo-4-{4-[4-(trifluoromethoxy)phenoxy]piperidin-1-yl}-1,2-dihydroquinoline-3-carbonitrile] as the compound, how does the IC50 read?
Answer: 4.7 nM

Question: Which IC50 does the source give for `Cn1c(=O)c(C#N)c(N2CCC(Sc3ccccc3)CC2)c2cc(C#N)ccc21` [Example 144, 1-methyl-2-oxo-4-[4-(phenylsulfanyl)piperidin-1-yl]-1,2-dihydroquinoline-3,6-dicarbonitrile] here?
Answer: 3 nM

Question: Which IC50 does the source give for `Cn1c(=O)c(C#N)c(N2CCC(Oc3ccc(OC(F)(F)F)cc3)CC2)c2cc(C#N)ccc21` [Example 145, 1-methyl-2-oxo-4-{4-[4-(trifluoromethoxy)phenoxy]piperidin-1-yl}-1,2-dihydroquinoline-3,6-dicarbonitrile] here?
Answer: 4.4 nM

Question: `Cn1c(=O)c(C#N)c(N2CCC(Oc3ccc(F)cc3)CC2)c2cc(C#N)ccc21` [Example 146, 4-[4-(4-fluorophenoxy)piperidin-1-yl]-1-methyl-2-oxo-1,2-dihydroquinoline-3,6-dicarbonitrile] was tested. Which IC50 did it give?
Answer: 17 nM

Question: `Cn1c(=O)c(C#N)c(N2CCC(Sc3ccccc3)CC2)c2cc(C3CC3)ccc21` [Example 147, 6-cyclopropyl-1-methyl-2-oxo-4-[4-(phenylsulfanyl)piperidin-1-yl]-1,2-dihydroquinoline-3-carbonitrile] was tested. Which IC50 did it give?
Answer: 32 nM

Question: Which IC50 does the source give for `Cn1c(=O)c(C#N)c(N2CCC(Oc3ccc(F)cc3)CC2)c2cc(C3CC3)ccc21` [Example 148, 6-cyclopropyl-4-[4-(4-fluorophenoxy)piperidin-1-yl]-1-methyl-2-oxo-1,2-dihydroquinoline-3-carbonitrile] here?
Answer: 73 nM

Question: For `Cc1cccc(OC2CCN(c3c(C#N)c(=O)n(C)c4ccc(C)cc34)CC2)c1` [Example 149, 1,6-dimethyl-4-[4-(3-methylphenoxy)piperidin-1-yl]-2-oxo-1,2-dihydroquinoline-3-carbonitrile], which IC50 is on record?
Answer: 7.7 nM

Question: How did the IC50 turn out when `Cc1ccc2c(c1)c(N1CCC(Oc3ccccc3C)CC1)c(C#N)c(=O)n2C` [Example 150, 1,6-dimethyl-4-[4-(2-methylphenoxy)piperidin-1-yl]-2-oxo-1,2-dihydroquinoline-3-carbonitrile] was run?
Answer: 50 nM

Question: `Cc1ccc2c(c1)c(N1CCC(Oc3ccccc3Cl)CC1)c(C#N)c(=O)n2C` [Example 151, 4-[4-(2-chlorophenoxy)piperidin-1-yl]-1,6-dimethyl-2-oxo-1,2-dihydroquinoline-3-carbonitrile] was tested. Which IC50 did it give?
Answer: 60 nM

Question: For `COc1cccc(OC2CCN(c3c(C#N)c(=O)n(C)c4ccc(C)cc34)CC2)c1` [Example 152, 4-[4-(3-methoxyphenoxy)piperidin-1-yl]-1,6-dimethyl-2-oxo-1 2-dihydroquinoline-3-carbonitrile], which IC50 is on record?
Answer: 3.8 nM

Question: Which IC50 does the source give for `COc1cc(C)ccc1OC1CCN(c2c(C#N)c(=O)n(C)c3ccc(C)cc23)CC1` [Example 153, 4-[4-(2-methoxy-4-methylphenoxy)piperidin-1-yl]-1,6-dimethyl-2-oxo-1,2-dihydroquinoline-3-carbonitrile] here?
Answer: 10 nM

Question: How did the IC50 turn out when `COc1ccccc1OC1CCN(c2c(C#N)c(=O)n(C)c3ccc(C)cc23)CC1` [Example 154, 4-[4-(2-methoxyphenoxy)piperidin-1-yl]-1,6-dimethyl-2-oxo-1,2-dihydroquinoline-3-carbonitrile] was run?
Answer: 13 nM

Question: How did the IC50 turn out when `Cc1ccc2c(c1)c(N1CCC(Oc3ccccc3C#N)CC1)c(C#N)c(=O)n2C` [Example 155, 4-[4-(2-cyanophenoxy)piperidin-1-yl]-1,6-dimethyl-2-oxo-1,2-dihydroquinoline-3-carbonitrile] was run?
Answer: 9.3 nM

Question: Which IC50 does the source give for `COc1ccc2c(c1)c(N1CCC(Oc3ccc(OC(F)(F)F)cc3)CC1)c(C#N)c(=O)n2C` [Example 156, 6-methoxy-1-methyl-2-oxo-4-{4-[4-(trifluoromethoxy)phenoxy]piperidin-1-yl}-1,2-dihydroquinoline-3-carbonitrile] here?
Answer: 7 nM

Question: For `Cn1c(=O)c(C#N)c(N2CCC(Oc3ccc(OC(F)(F)F)cc3)CC2)c2cc(Cl)ccc21` [Example 157, 6-chloro-1-methyl-2-oxo-4-{4-[4-(trifluoromethoxy)phenoxy]piperidin-1-yl}-1,2-dihydroquinoline-3-carbonitrile], which IC50 is on record?
Answer: 1240 nM
